Measured values as given in the NIST ThermoML archive (doi:10.1016/j.fluid.2007.07.016).

Assay: xn = mol fraction of the nth substance listed
Conditions: 101 kPa, Liquid; for viscosity: Capillary tube (Ostwald / Ubbelohde) method; for speed of sound: Linear variable-path acoustic interferometer

Cc1cccc(C)c1 [1,3-dimethylbenzene] + C1CCOC1
Conditions	speed of sound, 288.15 K [m/s]	speed of sound, 298.15 K [m/s]	speed of sound, 308.15 K [m/s]	speed of sound, 318.15 K [m/s]	viscosity, 288.15 K [mPa·s]	viscosity, 298.15 K [mPa·s]	viscosity, 308.15 K [mPa·s]	viscosity, 318.15 K [mPa·s]
x2 = 0	1373.2	1326.6	1281	1243	0.6696	0.588	0.5229	0.4684
x2 = 0.0722	1370.9	1324	1278.1	1239.4	0.6615	0.5823	0.5193	0.4668
x2 = 0.1486	1368.1	1321	1274.8	1235.5	0.6528	0.5762	0.5151	0.4647
x2 = 0.2134	1365.6	1318.4	1272.1	1232.2	0.6449	0.5703	0.511	0.4621
x2 = 0.2804	1362.9	1315.6	1269.2	1228.7	0.6363	0.5638	0.5061	0.4587
x2 = 0.3536	1359.7	1312.5	1265.9	1224.9	0.6263	0.556	0.4999	0.4542
x2 = 0.4255	1356.4	1309.3	1262.6	1221.1	0.616	0.5477	0.4932	0.4489
x2 = 0.4864	1353.5	1306.4	1259.7	1217.8	0.6068	0.5401	0.4869	0.4438
x2 = 0.5476	1350.5	1303.4	1256.6	1214.4	0.5971	0.5321	0.48	0.4382
x2 = 0.6041	1347.5	1300.5	1253.7	1211.1	0.5879	0.5243	0.4732	0.4323
x2 = 0.6751	1343.6	1296.7	1249.9	1206.9	0.5757	0.5139	0.464	0.4241
x2 = 0.7396	1339.8	1293.1	1246.4	1203.1	0.5642	0.5038	0.455	0.4162
x2 = 0.8005	1336.1	1289.6	1243	1199.5	0.5529	0.4939	0.446	0.408
x2 = 0.8722	1331.6	1285.4	1238.9	1195.1	0.5392	0.4817	0.4347	0.3974
x2 = 0.9378	1327.3	1281.4	1235.2	1191.1	0.5261	0.4699	0.4237	0.387

Cc1ccc(C)cc1 [1,4-dimethylbenzene] + C1CCOC1
Conditions	speed of sound, 288.15 K [m/s]	speed of sound, 298.15 K [m/s]	speed of sound, 308.15 K [m/s]	speed of sound, 318.15 K [m/s]	viscosity, 288.15 K [mPa·s]	viscosity, 298.15 K [mPa·s]	viscosity, 308.15 K [mPa·s]	viscosity, 318.15 K [mPa·s]
x2 = 0	1357.5	1316.4	1268	1230.3	0.7084	0.611	0.5501	0.4912
x2 = 0.084	1356	1314.1	1265.7	1227.2	0.6971	0.6047	0.5453	0.4891
x2 = 0.1716	1354.2	1311.7	1263.2	1224	0.6842	0.5954	0.5385	0.4849
x2 = 0.2322	1353.1	1310.1	1261.6	1221.9	0.6755	0.5895	0.5339	0.4819
x2 = 0.2934	1351.7	1308.3	1259.9	1219.6	0.6656	0.5825	0.528	0.4777
x2 = 0.3548	1350.2	1306.5	1258.1	1217.3	0.6552	0.5748	0.5214	0.4727
x2 = 0.4284	1348.1	1304	1255.7	1214.5	0.642	0.5648	0.5127	0.4658
x2 = 0.4896	1346.2	1301.8	1253.7	1212	0.6304	0.5558	0.5047	0.4592
x2 = 0.5518	1344.1	1299.4	1251.5	1209.3	0.6181	0.5461	0.4959	0.4518
x2 = 0.6201	1341.5	1296.6	1248.8	1206.2	0.6039	0.5347	0.4854	0.4428
x2 = 0.6825	1338.9	1293.7	1246.2	1203.3	0.5904	0.5237	0.4751	0.4337
x2 = 0.7414	1336.3	1290.9	1243.6	1200.4	0.5767	0.5127	0.4647	0.4245
x2 = 0.8102	1333.1	1287.6	1240.6	1197	0.5609	0.4991	0.4518	0.4128
x2 = 0.8756	1329.8	1284.3	1237.5	1193.7	0.545	0.4855	0.4388	0.4009
x2 = 0.9409	1326.4	1280.8	1234.4	1190.4	0.5284	0.4713	0.425	0.3881
